Measurements: article PMC8388802, “Study on the Structure-Activity Relationship of an Antimicrobial Peptide, Brevinin-2GUb, from the Skin Secretion of Hylarana guentheri” (Antibiotics, 2021)
In brackets after ≈: the same amount, converted by molar mass. Where a SMILES comes first, the peptide text is derived from it.

Experiments:
[1] = system: S. aureus (ATCC 6538) biofilm; assay type: cell-based, Staphylococcus aureus; conditions: ATCC 6538, 24 h
Procedure: (§1) The anti-biofilm activities of the peptides against S. aureus (ATCC 6538), MRSA (NCTC 12493), E. faecalis (NCTC 12493), E. coli (ATCC CRM 8739), K. pneumoniae (ATCC 43816), and P. aeruginosa (ATCC CRM 9027) were evaluated.
(§2) The bacteria were inoculated in a different medium (Gram-positive bacteria were in TSB and Gram-negative bacteria were in LB) overnight, and the subculture was conducted in the same medium. When the bacteria reached a specific density, 100 µL of the dilution was added to each well of the 96-well microplate. Then 1 µL of peptide at a series of concentrations, the same concentration in the antimicrobial assay, were added into the well together with the bacteria. The plates were put into a moist shaking incubator with a speed of 200 rpm, and the temperature was set at 37 ℃. After a 24-h incubation, the liquid in the wells was aspirated, and each was washed twice by 100 µL PBS. One hundred µL of methanol were added into each well to stabilise the biofilm. After air-drying, 100 µL crystal violet was used to dye the biofilm, and they were dissolved in the 100 µL glacial acidic acid after drying. The solutions were transferred to a new microplate, and the absorbance of each well was tested by a microplate reader (EL808, Biolise BioTek Winooski, Minneapolis, MN, USA) at 595 nm wavelength. MBIC was the minimum concentration of the peptide showing no biofilm formation.
(§3) The bacteria were inoculated in a different medium (Gram-positive bacteria were in TSB and Gram-negative bacteria were in LB) overnight, and the subculture was conducted in the same medium. When the bacteria reached a specific density, 100 µL of the dilution was added to each well of the 96-well microplates. The plates were put into a moist shaking incubator with a speed of 200 rpm and the temperature was 37 ℃. After a 24 h incubation, the liquid in the wells was aspirated and they were washed twice by 100 µL PBS of each well. The peptides with the same concentrations were diluted in the corresponding medium and 100 µL were added into each well. After a 24-h incubation, the liquid in the wells was aspirated and they were washed twice by 100 µL PBS. One hundred µL of methanol were added into the wells to stabilise the biofilms. After being air-dried, 100 µL crystal violet was used to dye the biofilm, and they were dissolved in the 100 µL glacial acidic acid after drying. The solutions were transferred to a new microplate, and the absorbance of each well was tested by a microplate reader (EL808, Biolise BioTek Winooski, Minneapolis, USA) at 595 nm wavelength.

[2] = system: K. pneumoniae (ATCC 43816) biofilm; assay type: cell-based, Klebsiella pneumoniae; conditions: ATCC 43816, 24 h
Procedure: as §1, §2, §3

MRSA (NCTC 12493) = assay type: cell-based, Methicillin-resistant Staphylococcus aureus
Procedure: (§4) The method of antimicrobial assay is based on the Methods for Dilution Antimicrobial Susceptibility Tests for Bacteria that Grow Aerobically from the Clinical and Laboratory Standards Institute (CLSI).The antimicrobial activities of peptides were evaluated against Gram-positive bacteria S. aureus (ATCC 6538), MRSA (NCTC 12493), E. faecalis (NCTC 12493), Gram-negative bacteria E. coli (ATCC CRM 8739), K. pneumoniae (ATCC 43816), P. aeruginosa (ATCC CRM 9027), yeast C. albicans (ATCC CRM 10231) and clinical isolates MRSA (B042 V2E1 A), E. coli (ATCC BAA-2340), K. pneumoniae (ATCC BAA-1705), P. aeruginosa (B004 V2S2 B).
(§5) At the first stage of the assay, 20 μL bacteria were cultured in 100 mL Mueller Hinton Broth (MHB) or Yeast Extract–Peptone–Dextrose broth (YPD-B), respectively, and was incubated overnight. Then, microorganisms were subcultured in 20 mL fresh MHB or YPD-B to achieve cultures in the logarithmic phase (1 × 10^8 CFU/mL), which can be verified by optical density (OD) (The OD of Gram-positive bacteria is 0.23, OD of Gram-negative bacteria is 0.4, and OD of yeast is 0.15), and viable cell counts. Then, the medium was used to dilute the cultures to specific cell densities (Gram-negative and Gram-positive bacteria: 5 × 10^5 CFU/mL; yeast: 1 × 10^6 CFU/mL), which were the final concentrations of bacterial suspensions used in the assay. The peptides were dissolved in DMSO to reach a final concentration of 512 µM. A series of two-fold dilutions ranging from 512 µM to 1 µM were dosed in the 96-well plates.
(§6) Antimicrobial assays were conducted in 96-well plates, which were divided into five groups, including a negative control group (PBS), a positive control group (20 μg/mL norfloxacin for bacteria and 10 μg/mL amphotericin B for yeast), vehicle control (1% DMSO), blank control (MHB or YPD-B), and a peptide group. Each microorganism had five repetitions, and each well contained 1 µL corresponding solution and 99 µL culture. After incubation at 37 °C overnight, the absorbance of each well was tested by a microplate reader (EL808, Biolise BioTek Winooski, Minneapolis, USA) under a 550 nm wavelength. The MIC is the lowest concentration at which no bacterial growth can be observed.
(§7) The next day, 10 µL of every clear well was taken out to be cultured on a Mueller Hinton Agar (MHA) plate and incubated at 37 °C for 16–20 h. The MBC is the lowest concentration without any bacterial colonies, which means at this concentration, the peptide reduces the viability of the pathogen by more than 99.9%.

MRSA (B042 V2E1 A) = assay type: cell-based, Methicillin-resistant Staphylococcus aureus
Procedure: as §4, §5, §6, §7

S. aureus (ATCC 6538) = assay type: cell-based, Staphylococcus aureus
Procedure: as §4, §5, §6, §7

[3] = system: P. aeruginosa (ATCC CRM 9027) biofilm; assay type: cell-based, Pseudomonas aeruginosa; conditions: ATCC CRM 9027, 24 h
Procedure: as §1, §2, §3

[4] = system: E. faecalis (NCTC 12493) biofilm; assay type: cell-based, Enterococcus faecalis; conditions: NCTC 12493, 24 h
Procedure: as §1, §2, §3

[5] = system: C. albicans (ATCC CRM 10231); assay type: cell-based, Candida albicans
Procedure: as §4, §5, §6, §7

E. faecalis (NCTC 12493) = assay type: cell-based, Enterococcus faecalis
Procedure: as §4, §5, §6, §7

[6] = system: E. coli (ATCC CRM 8739) biofilm; assay type: cell-based, Escherichia coli; conditions: ATCC CRM 8739, 24 h
Procedure: as §1, §2, §3

| Compound | MBEC [1] | MBIC [1] | MBEC [2] [µM] | MBIC [2] [µM] | MBC (MRSA (NCTC 12493)) [µM] | MIC (MRSA (NCTC 12493)) [µM] | MBC (MRSA (B042 V2E1 A)) [µM] | MIC (MRSA (B042 V2E1 A)) [µM] | MBC (S. aureus (ATCC 6538)) [µM] | MIC (S. aureus (ATCC 6538)) [µM] | MBEC [3] [µM] | MBIC [3] [µM] | MBEC [4] [µM] | MBIC [4] [µM] | MBC [5] [µM] | MIC [5] [µM] | MBC (E. faecalis (NCTC 12493)) [µM] | MIC (E. faecalis (NCTC 12493)) [µM] | MBEC [6] [µM] | MBIC [6] [µM] |
| --- | --- | --- | --- | --- | --- | --- | --- | --- | --- | --- | --- | --- | --- | --- | --- | --- | --- | --- | --- | --- |
| CC[C@H](C)[C@H](NC(=O)[C@@H](NC(=O)CN)C(C)C)C(=O)N[C@H](C(=O)N[C@@H](CCCCN)C(=O)N[C@H](C(=O)N[C@@H](CC(C)C)C(N)=O)[C@@H](C)O)[C@@H](C)CC [Peptide 7-tB2U-K] (H-GVIIKTL-NH2) | 512/>512 μM | 512/>512 μM | >512 | >512 | > 512 | 256 (≈ 190 µg/mL) | >512 | >512 | > 512 | 512 (≈ 380 µg/mL) | >512 | >512 | >512 | >512 | >512 | >512 | >512 | >512 | >512 | >512 |
| CC[C@H](C)[C@H](NC(=O)[C@@H](NC(=O)CN)C(C)C)C(=O)N[C@H](C(=O)N[C@@H](CCCCN)C(=O)N[C@H](C(=O)N[C@@H](CC(C)C)C(=O)N[C@@H](CCCCN)C(=O)NCC(=O)N[C@@H](C)C(=O)N[C@@H](C)C(=O)N[C@@H](CCCCN)C(=O)N[C@H](C(=O)N[C@H](C(N)=O)C(C)C)[C@@H](C)O)[C@@H](C)O)[C@@H](C)CC [Peptide 14-tB2U-K] (H-GVIIKTLKGAAKTV-NH2) | >512 µM | >512 µM | >512 | >512 | >512 | >512 | >512 | >512 | > 512 | 256 (≈ 358 µg/mL) | >512 | >512 | >512 | >512 | >512 | >512 | >512 | >512 | >512 | >512 |
| CC[C@H](C)[C@H](NC(=O)[C@@H](NC(=O)CN)C(C)C)C(=O)N[C@H](C(=O)N[C@@H](CCCCN)C(=O)N[C@@H](CCCCN)C(=O)N[C@@H](CC(C)C)C(=O)N[C@@H](CCCCN)C(=O)NCC(=O)N[C@@H](C)C(=O)N[C@@H](C)C(=O)N[C@@H](CCCCN)C(=O)N[C@@H](CCCCN)C(=O)N[C@H](C(=O)N[C@@H](C)C(=O)N[C@@H](C)C(=O)N[C@@H](CCCCN)C(=O)N[C@@H](CC(C)C)C(=O)N[C@@H](CC(C)C)C(N)=O)C(C)C)[C@@H](C)CC [tB2U-6K] (H-GVIIKKLKGAAKKVAAKLL-NH2) | > 512 µM | 64 µM | > 512 | 32 | 128 (≈ 249 µg/mL) | 64 (≈ 125 µg/mL) | 256 (≈ 499 µg/mL) | 256 (≈ 499 µg/mL) | 32 (≈ 62.4 µg/mL) | 32 (≈ 62.4 µg/mL) | > 512 | 32 | > 512 | 64 | 256 (≈ 499 µg/mL) | 256 (≈ 499 µg/mL) | 64 (≈ 125 µg/mL) | 64 (≈ 125 µg/mL) | > 512 | 2 |
| CC[C@H](C)[C@H](NC(=O)[C@@H](NC(=O)CN)C(C)C)C(=O)N[C@H](C(=O)N[C@@H](CCCCN)C(=O)N[C@H](C(=O)N[C@@H](CC(C)C)C(=O)N[C@@H](CCCCN)C(=O)NCC(=O)N[C@@H](C)C(=O)N[C@@H](C)C(=O)N[C@@H](CCCCN)C(=O)N[C@H](C(=O)N[C@H](C(=O)N[C@@H](C)C(=O)N[C@@H](C)C(=O)N[C@@H](CCCCN)C(=O)N[C@@H](CC(C)C)C(=O)N[C@@H](CC(C)C)C(N)=O)C(C)C)[C@@H](C)O)[C@@H](C)O)[C@@H](C)CC [tB2U-K] (H-GVIIKTLKGAAKTVAAKLL-NH2) | > 512 µM | 16 µM | > 512 | 128 | 128 (≈ 242 µg/mL) | 128 (≈ 242 µg/mL) | >512 | >512 | 32 (≈ 60.6 µg/mL) | 32 (≈ 60.6 µg/mL) | > 512 | 128 | > 512 | 32 | 64 (≈ 121 µg/mL) | 64 (≈ 121 µg/mL) | 32 (≈ 60.6 µg/mL) | 32 (≈ 60.6 µg/mL) | > 512 | 16 |
| CC[C@H](C)[C@H](NC(=O)[C@@H](NC(=O)CN)C(C)C)C(=O)N[C@H](C(=O)N[C@@H](CC(=O)O)C(=O)N[C@H](C(=O)N[C@@H](CC(C)C)C(=O)N[C@@H](CCCCN)C(=O)NCC(=O)N[C@@H](C)C(=O)N[C@@H](C)C(=O)N[C@@H](CCCCN)C(=O)N[C@H](C(=O)N[C@H](C(=O)N[C@@H](C)C(=O)N[C@@H](C)C(=O)N[C@@H](CCC(=O)O)C(=O)N[C@@H](CC(C)C)C(=O)N[C@@H](CC(C)C)C(N)=O)C(C)C)[C@@H](C)O)[C@@H](C)O)[C@@H](C)CC [tB2U-α] (H-GVIIDTLKGAAKTVAAELL-NH2) | >512 µM | >512 µM | >512 | >512 | >512 | >512 | >512 | >512 | >512 | >512 | >512 | >512 | >512 | >512 | >512 | >512 | >512 | >512 | >512 | >512 |
